Data as given in patent US7135466B2 (Kirin Beer Kabushiki Kaisha, priority 1999, dated 2006).

The compounds below were run against T1, c-kit (Homo sapiens, UniProt P10721) (assay: Inhibitory activity against c-kit autophosphorylation (MO7e cells, h-SCF)). Details: MO7e cells, 50 ng/ml h-SCF; read-out: c-kit IC50.
T1 construct: MO7e (human megakaryocytic leukemia cell line) which had been arrested for 20 hr; endogenous in cells; host or cells: MO7e human megakaryocytic leukemia cell line
T1 sequence (P10721 26-976): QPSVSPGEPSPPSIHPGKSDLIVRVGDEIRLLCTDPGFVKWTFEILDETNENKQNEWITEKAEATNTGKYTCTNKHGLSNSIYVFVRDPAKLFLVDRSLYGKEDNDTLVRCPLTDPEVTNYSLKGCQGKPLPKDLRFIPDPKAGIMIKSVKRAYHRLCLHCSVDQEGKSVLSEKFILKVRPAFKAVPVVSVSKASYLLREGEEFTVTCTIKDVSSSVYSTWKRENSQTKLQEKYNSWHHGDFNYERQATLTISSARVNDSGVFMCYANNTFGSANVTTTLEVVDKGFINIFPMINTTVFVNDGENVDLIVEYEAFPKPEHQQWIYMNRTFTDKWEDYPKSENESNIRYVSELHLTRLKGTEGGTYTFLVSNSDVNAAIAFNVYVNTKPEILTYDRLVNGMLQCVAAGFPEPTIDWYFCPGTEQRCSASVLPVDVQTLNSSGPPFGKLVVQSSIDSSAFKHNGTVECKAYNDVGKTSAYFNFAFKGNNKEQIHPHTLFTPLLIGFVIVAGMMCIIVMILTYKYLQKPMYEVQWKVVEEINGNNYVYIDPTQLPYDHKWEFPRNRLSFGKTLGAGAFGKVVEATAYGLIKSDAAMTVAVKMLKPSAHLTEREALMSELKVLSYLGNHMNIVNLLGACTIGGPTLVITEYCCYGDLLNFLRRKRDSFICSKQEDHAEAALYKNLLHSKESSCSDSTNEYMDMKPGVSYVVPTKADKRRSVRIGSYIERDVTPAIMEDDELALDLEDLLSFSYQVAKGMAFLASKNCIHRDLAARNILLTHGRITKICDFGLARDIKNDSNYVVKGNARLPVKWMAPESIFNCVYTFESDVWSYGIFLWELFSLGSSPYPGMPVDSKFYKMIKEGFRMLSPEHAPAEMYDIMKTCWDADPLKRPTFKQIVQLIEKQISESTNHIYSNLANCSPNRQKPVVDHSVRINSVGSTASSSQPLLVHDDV
Format: cell-based
Protocol: Inhibitory Activity Against c-kit Autophosphorylation
MO7e (human megakaryocytic leukemia cell line) which had been arrested for 20 hr was seeded into 96 well plates at an amount of 2×10^5 per well. A solution of a test compound in DMSO was added, and a reaction was then allowed to proceed for one hr. Thereafter, the cells were stimulated by 50 ng/ml of h-SCF for 5 min, followed by replacement with lysate buffer to solubilize the cells.
Next, the solubilized cell sap was transferred to a 96-well plate with an anti-phosphotyrosine antibody (PY-20) previously immobilized thereon, and a reaction was allowed to proceed. Thereafter, the cells were reacted with an anti-c-kit antibody (c-19, Santa Cruz) as a primary antibody and were labelled with GAR (anti-rabbit IgG, horseradish peroxidase, Amersham) as a secondary antibody. Color development was then carried out in a peroxidase color development kit (Sumitomo Bakelite Co., Ltd.), and the absorbance was measured at a wavelength of 450 nm.
For `COc1cc(Oc2ccnc3cc(OC)c(OC)cc23)ccc1NC(=O)NCCN1CCCCC1` [Example 681, N-{4-[(6,7-Dimethoxy-4-quinolyl)oxy]-2-methoxyphenyl}-N′-(2-piperidinoethyl)urea], the IC50 was 270 nM.
Work on `COc1cc2nccc(Oc3ccc(OCCNc4ccccc4C)cc3)c2cc1OC` [Example 783, N-(2-{4-[(6,7-Dimethoxy-4-quinolyl)oxy]phenoxy}ethyl)-N-(2-methylphenyl)amine] yielded an IC50 of 451 nM.

Same assay, conditions: MO7e cells, h-SCF 50 ng/ml; read-out: c-kit IC50
For “4-Methylbenzyl {4-[(6,7-dimethoxy-4-quinazolinyl)oxy]anilino}methanethioate [Example 110]”, the IC50 was 110 nM.
With “4-Methylbenzyl {2-chloro-4-[(6,7-dimethoxy-4-quinazolinyl)oxy]anilino}methanethioate [Example 111]” the IC50 was 750 nM.

Same assay, conditions: MO7e cells, h-SCF stimulation; read-out: c-kit IC50
`COc1cc2nccc(Oc3ccc(SCCOc4ccccc4Cl)cc3)c2cc1OC` [Example 819, 4-(4-{[2-(2-Chlorophenoxy)ethyl]sulfanyl}phenoxy)-6,7-dimethoxyquinoline] was tested, and the IC50 was 212 nM.
With `COc1cc2nccc(Oc3ccc(NC(=S)NC(=O)c4ccc(C)cc4)cc3Cl)c2cc1OC` [Example 977, N-{3-Chloro-4-[(6,7-dimethoxy-4-quinolyl)oxy]phenyl}-N′-(4-methylbenzoyl)thiourea] the IC50 was 824 nM.
`COc1cc2nccc(Oc3ccc(NCCOc4c(Cl)cccc4Cl)cc3)c2cc1OC` [Example 854, N-[2-(2,6-Dichlorophenoxy)ethyl]-N-{4-[(6,7-dimethoxy-4-quinolyl)oxy]phenyl}amine] showed an IC50 of 313 nM.
Work on `COc1cccc(OCCSc2ccc(Oc3ccnc4cc(OC)c(OC)cc34)cc2)c1` [Example 812, 6,7-Dimethoxy-4-(4-{[2-(3-methoxyphenoxy)ethyl]sulfanyl}phenoxy)quinoline] yielded an IC50 of 326 nM.
With `COc1cc2ncnc(Oc3ccc(NCCOc4ccccc4)cc3)c2cc1OC` [Example 873, N-{4-[(6,7-Dimethoxy-4-quinazolinyl)oxy]phenyl}-N-(2-phenoxyethyl)amine] the IC50 was 69 nM.
For `COc1cc2nccc(Oc3ccc(NCCOc4cc(C)cc(C)c4)cc3)c2cc1OC` [Example 858, N-{4-[(6,7-Dimethoxy-4-quinolyl)oxy]-phenyl}-N-[2-(3,5-dimethylphenoxy)ethyl]amine], the IC50 was 102 nM.
For `COc1cc2nccc(Oc3ccc(NCCOc4c(OC)cccc4OC)cc3)c2cc1OC` [Example 856, N-[2-(2,6-Dimethoxyphenoxy)ethyl]-N-{4-[(6,7-dimethoxy-4-quinolyl)oxy]phenyl}amine], the IC50 was 255 nM.
With `COc1cc2nccc(Oc3ccc(NC(=S)NC(=O)c4ccc(F)cc4)cc3F)c2cc1OC` [Example 972, N-{4-[(6,7-Dimethoxy-4-quinolyl)oxy]-3-fluorophenyl}-N′-(4-fluorobenzoyl)thiourea] the IC50 was 532 nM.
`COc1cc2nccc(Oc3ccc(NC(=S)NC(=O)c4ccc([N+](=O)[O-])cc4)cc3F)c2cc1OC` [Example 975, N-{4-[(6,7-Dimethoxy-4-quinolyl)oxy]-3-fluorophenyl}-N′-(4-nitrobenzoyl)thiourea] was tested, and the IC50 was 290 nM.
With `COc1cc2ncnc(Oc3ccc(NC(=S)NC(=O)c4ccccc4Cl)cc3)c2cc1OC` [Example 928, N-(2-Chlorobenzoyl)-N′-{4-[(6,7-dimethoxy-4-quinazolinyl)oxy]phenyl}thiourea] the IC50 was 289 nM.
With `COc1cc2nccc(Oc3ccc(NC(=S)NC(=O)c4ccccc4C(F)(F)F)cc3)c2cc1OC` [Example 902, N-{4-[(6,7-Dimethoxy-4-quinolyl)oxy]phenyl}-N′-[2-(trifluoromethyl)benzoyl]thiourea] the IC50 was 299 nM.
In the case of `COc1cc2nccc(Oc3ccc(NCCOc4ccccc4O)cc3)c2cc1OC` [Example 872, 2-(2-{4-[(6,7-Dimethoxy-4-quinolyl)oxy]anilino}ethoxy)phenol], the IC50 is reported as 32 nM.
Compound `COc1cccc(C(=O)NC(=S)Nc2ccc(Oc3ccnc4cc(OC)c(OC)cc34)c(F)c2)c1` [Example 944, N-{4-[(6,7-Dimethoxy-4-quinolyl)oxy]3-fluorophenyl}-N′-(3-methoxybenzoyl)thiourea] has an IC50 of 140 nM.
`COc1cc2nccc(Oc3ccc(NC(=S)NC(=O)c4ccccc4)cc3Cl)c2cc1OC` [Example 918, N-Benzoyl-N′-{3-chloro-4-[(6,7-dimethoxy-4-quinolyl)oxy]phenyl}thiourea] was tested, and the IC50 was 552 nM.
`COc1ccc(C(=O)NC(=S)Nc2ccc(Oc3ccnc4cc(OC)c(OC)cc34)cc2)cc1OC` [Example 1010, N-(3,4-Dimethoxybenzoyl)-N′-{4-[(6,7-dimethoxy-4-quinolyl)oxy]phenyl}thiourea] showed an IC50 of 78 nM.
`COc1cc2ncnc(Oc3ccc(SCCCOc4ccccc4F)cc3)c2cc1OC` [Example 845, 4-(4-{[3-(2-Fluorophenoxy)propyl]sulfanyl}phenoxy)-6,7-dimethoxyquinazoline] showed an IC50 of 453 nM.
Compound `COc1cc2nccc(Oc3ccc(NC(=S)NC(=O)c4cccc(Cl)c4)cc3Cl)c2cc1OC` [Example 949] has an IC50 of 250 nM.
`COc1cc2nccc(Oc3ccc(NC(=S)NC(=O)c4cc(Cl)cc(Cl)c4)cc3F)c2cc1OC` [Example 1015, N-(3,5-Dichlorobenzoyl)-N′-{4-[(6,7-dimethoxy-4-quinolyl)oxy]-3-fluorophenyl}thiourea] showed an IC50 of 195 nM.
With `COc1cc2nccc(Oc3ccc(NC(=S)NC(=O)CCC4CCCC4)c(F)c3)c2cc1OC` [Example 1027, N-(3-Cyclopentylpropanoyl)-N′-{4-[(6,7-dimethoxy-4-quinolyl)oxy]-2-fluorophenyl}thiourea] the IC50 was 161 nM.
Compound `COc1cc2ncnc(Oc3ccc(NC(=S)NC(=O)c4cccc(Br)c4)cc3)c2cc1OC` [Example 958, N-(3-Bromobenzoyl)-N′-{4-[(6,7-dimethoxy-4-quinazolinyl)oxy]phenyl}thiourea] has an IC50 of 194 nM.
`COc1cc2nccc(Oc3ccc(NCCOc4ccccc4)cc3)c2cc1OC` [Example 869, N-{4-[(6,7-Dimethoxy-4-quinolyl)oxy]phenyl}-N-(2-phenoxyethyl)amine] showed an IC50 of 80 nM.
`COc1cc2nccc(Oc3ccc(NC(=S)NC(=O)C4CC4c4ccccc4)cc3F)c2cc1OC` (stereo not drawn) [Example 1057, N-{4-[(6,7-Dimethoxy-4-quinolyl)oxy]-3-fluorophenyl}-N′-[(2-phenylcyclopropyl)carbonyl]thiourea] gave an IC50 of 447 nM.
`COc1cc2nccc(Oc3ccc(SCCCOc4cccc(C)c4)cc3)c2cc1OC` [Example 841, 6,7-Dimethoxy-4-(4-{[3-(3-methylphenoxy)propyl]sulfanyl}phenoxy)quinoline] showed an IC50 of 118 nM.
Work on `COc1cc2nccc(Oc3ccc(NC(=S)NC(=O)c4cccc(F)c4)cc3)c2cc1OC` [Example 931, N-{4-[(6,7-Dimethoxy-4-quinolyl)oxy]phenyl}-N′-(3-fluorobenzoyl)thiourea] yielded an IC50 of 516 nM.

Same assay, conditions: Mo7e, figure in parentheses in −( ); at 1000 nM
`COc1cc2nccc(Oc3ccc(NC(=S)NC(=O)c4ccccc4C(F)(F)F)c(F)c3)c2cc1OC` [Example 910, N-{4-[(6,7-Dimethoxy-4-quinolyl)oxy]-2-fluorophenyl}-N′-[2-(trifluoromethyl)benzoyl]thiourea] was tested, and the inhibition at 1 µM was 38%.
Work on `COc1cc2ncnc(Oc3ccc(SCCCCOc4cccc(C)c4)cc3)c2cc1OC` [Example 847, 6,7-Dimethoxy-4-(4-{[4-(3-methylphenoxy)butyl]sulfanyl}phenoxy)quinazoline] yielded an inhibition at 1 µM of 9%.
`COc1cc2nccc(Oc3ccc(NC(=S)NC(=O)c4ccc(C)cc4)c(F)c3)c2cc1OC` [Example 964, N-{4-[(6,7-Dimethoxy-4-quinolyl)oxy]-2-fluorophenyl}-N′-(4-methylbenzoyl)thiourea] showed an inhibition at 1 µM of 46%.
Compound `COc1cc2nccc(Oc3ccc(S(=O)(=O)CCOc4ccc(C)c(C)c4)cc3)c2cc1OC` [Example 833, 4-[(6,7-Dimethoxy-4-quinolyl)oxy]phenyl [2-(3,4-dimethylphenoxy)ethyl]sulfone] has an inhibition at 1 µM of 26%.
`COc1cc2nccc(Oc3ccc(NC(=S)NC(=O)c4ccc(F)cc4F)c(C)c3C)c2cc1OC` [Example 1088, N-(2,4-Difluorobenzoyl)-N′-{4-[(6,7-dimethoxy-4-quinolyl)oxy]-2,3-dimethylphenyl}thiourea] was tested, and the inhibition at 1 µM was 23%.
`COc1cc2nccc(Oc3ccc(NC(=S)NC(=O)c4ccccc4OC)cc3F)c2cc1OC` [Example 916, N-{4-[(6,7-Dimethoxy-4-quinolyl)oxy]-3-fluorophenyl}-N′-(2-methoxybenzoyl)thiourea] was tested, and the inhibition at 1 µM was 16%.
`COc1cc2nccc(Oc3ccc(NC(=S)NC(=O)c4ccccc4OC)c(F)c3)c2cc1OC` [Example 909, N-{4-[(6,7-Dimethoxy-4-quinolyl)oxy]-2-fluorophenyl}-N′-(2-methoxybenzoyl)thiourea] was tested, and the inhibition at 1 µM was 32%.
`COc1cc2nccc(Oc3ccc([S+]([O-])CCOc4ccc(Cl)cc4Cl)cc3)c2cc1OC` (stereo not drawn) [Example 840, [2-(2,4-Dichlorophenoxy)ethyl]{4-[(6,7-dimethoxy-4-quinolyl)oxy]phenyl} sulfoxide] showed an inhibition at 1 µM of 14%.
`COc1cc2nccc(Oc3ccc(S(=O)(=O)CCOc4ccccc4C(C)C)cc3)c2cc1OC` [Example 836, 4-[(6,7-Dimethoxy-4-quinolyl)oxy]phenyl [2-(2-isopropylphenoxy)ethyl]sulfone] showed an inhibition at 1 µM of 39%.
`COc1cc2nccc(Oc3ccc(NC(=S)NC(=O)c4ccc(I)cc4)cc3F)c2cc1OC` [Example 974, N-{4-[(6,7-Dimethoxy-4-quinolyl)oxy]-3-fluorophenyl}-N′-(4-iodobenzoyl)thiourea] was tested, and the inhibition at 1 µM was 34%.

Same assay, conditions: Mo7e, figure within parentheses in −( ) or >1000( ); at 1000 nM
In the case of `COc1cc2ncnc(Oc3ccc(NC(=S)NCCCN4CCN(C)CC4)cc3)c2cc1OC` [Example 536], the inhibition at 1 µM is reported as 7%.
